Measured values as given in patent US8217079B2 (priority 2010, dated 2012).

How the values were obtained:
[1] = tested on: stem cells obtained from PV or ET patients; settings: sub-micromolar concentrations; cited from earlier work
[2] = tested on: JAK2^V617F positive Polycythemia Vera; assay: Phase II study of ITF2357 in combination with N-hydroxyurea in Polycythemia Vera; assay type: in vivo, human
Description: A multicentre, randomized, open-label, phase II study testing Givinostat-Hydrochloride-Monohydrate (ITF2357) in combination with N-hydroxyurea (HU) in Polycythemia Vera (PV).
Population in the study: 44 patients of both genders with an established diagnosis of JAK2^V617F positive PV according to the revised WHO criteria, in need of cytoreductive therapy, non-responders to therapeutic doses of HU monotherapy for at least 3 months.
Duration of the treatment: up to a maximum of 24 weeks of continual administration.
Primary objective: To evaluate the efficacy of ITF2357 in combination with HU in patients with JAK2^V617F positive Polycythemia Vera non-responders to therapeutic doses of HU in monotherapy.
Results: Patients response has been evaluated according to the european criteria [as reported in G. Barosi et al. Blood 113, 4829-4833 (2009)].

PRV-1 gene expression = settings: in vivo; cited from earlier work
[3] = patients on cytostatic therapy; cited from earlier work
PV = settings: patients with PV; cited from earlier work

CCN(CC)Cc1ccc2cc(COC(=O)Nc3ccc(C(=O)NO)cc3)ccc2c1.Cl [ITF2357, Diethyl-[6-(4-hydroxycarbamoyl-phenylcarbamoyloxymethyl)-naphthalen-2-ylmethyl]-ammonium chloride]
clonogenic activity of stem cells [1]: inhibit the clonogenic activity | control of the clinico-hematologic parameters (response by european criteria) ([2]; ITF2357 50 mg/day combined with N-hydroxyurea 500 mg/day, preliminary data, 6 patients refractory to previous HU monotherapy): significant control of the clinico-hematologic parameters | amelioration of the clinical parameters ([2]; in combination with N-hydroxyurea, compared to HU monotherapy, patients with myeloproliferative syndromes, preferably polycythemia vera): significant amelioration of the clinical parameters

NC(=O)NO [N-hydroxyurea, reference compound]
PRV-1 gene expression (PRV-1 gene expression): increase | side effects observed (drug tolerance) [3]: leg ulcers and buccal aphthous ulcers

O=C(CCBr)N1CCN(C(=O)CCBr)CC1 [Pipobroman]
side effects observed (drug tolerance) [3]: gastric pain and diarrhea

IFN-α
PRV-1 expression (PRV-1 gene expression): significantly reduces | efficacy of therapy compared with N-hydroxyurea treatment (PV): more effective
